Results on six molecules are retold here after ChEMBL document CHEMBL5120813, “Polysubstituted Cyclopentene Benzamides and Dianthramide Alkaloids from Delphinium anthriscifolium Hance” (2022).

Molecules are shown by their SMILES.

For the test, the system named is RAW264.7. As to the kind of experiment: Antiinflammatory activity in mouse RAW264.7 assessed as inhibition of LPS-induced NO production preincubated for 30 mins followed by LPS stimulation measured after 24 hrs by Griess reagent based assay relative to control. The following applies: 0.5 h. Set-up: concentration or dose not given beside the values. It counts as functional. Background: The Griess reaction detects nitrite, a stable product of nitric oxide.

In the case of `COC(=O)c1cc(O)c(O)cc1NC(=O)c1cc(O)ccc1O`, the “inhibition (INH)” value turned out to be 40.3%. With `COC(=O)c1c(NC(=O)c2cccc(O)c2OC)ccc(O)c1OC` the figure was 43%; with `COC(=O)c1cc(O)c(O)cc1NC(=O)c1cc(O)ccc1OC`, 78.8%; with `COC(=O)c1cc(O)ccc1NC(=O)c1cccc(O)c1OC`, 61.2%. With `COC(=O)c1cc(O)c(O)cc1NC(=O)c1ccccc1O` the figure was 57.6%; with `O=c1c(O)c(-c2ccc(O)c(O)c2)oc2cc(O)cc(O)c12` [QUERCETIN], 48.6%.
